Calls of active or inactive are those of the source. No cut-off for these calls is given here.
Legend:
Dermcidin (Homo sapiens) = biological target: T1, Dermcidin (Homo sapiens) (UniProt P81605); assay: Covalent binding affinity to DCD-1L (unknown origin) at 50 uM incubated for 24 hrs by denatured SDS-PAGE gel electrophoresis
T1 sequence (whole entry): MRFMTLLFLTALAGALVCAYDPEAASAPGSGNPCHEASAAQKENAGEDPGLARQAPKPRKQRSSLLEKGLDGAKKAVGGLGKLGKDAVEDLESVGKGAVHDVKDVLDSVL

KM12 = assay: Growth inhibition of human KM12 cells assessed as cell growth incubated for 48 hrs by sulforhodamine B assay; type: functional; set-up: concentration or dose not given beside the values
HCT-15 = assay: Growth inhibition of human HCT15 cells assessed as cell growth incubated for 48 hrs by sulforhodamine B assay; type: functional; set-up: scale not given: the % may be the effect or the level left
UACC-62 = assay: Growth inhibition of human UACC62 cells assessed as cell growth incubated for 48 hrs by sulforhodamine B assay; type: functional; set-up: concentration or dose not given beside the values
SNB-19 = assay: Growth inhibition of human SNB19 cells assessed as cell growth incubated for 48 hrs by sulforhodamine B assay; type: functional; set-up: concentration or dose not given beside the values
COLO 205 = assay: Growth inhibition of human COLO205 cells assessed as cell growth incubated for 48 hrs by sulforhodamine B assay; type: functional; set-up: concentration or dose not given beside the values
NCI/ADR-RES = assay: Growth inhibition of human NCI/ADR-RES cells assessed as cell growth incubated for 48 hrs by sulforhodamine B assay; type: functional; set-up: concentration or dose not given beside the values
T47D = assay: Growth inhibition of human T47D cells assessed as cell growth incubated for 48 hrs by sulforhodamine B assay; type: functional; set-up: concentration or dose not given beside the values
SF-268 = assay: Growth inhibition of human SF268 cells assessed as cell growth incubated for 48 hrs by sulforhodamine B assay; type: functional; set-up: concentration or dose not given beside the values
HCC 2998 = assay: Growth inhibition of human HCC2998 cells assessed as cell growth incubated for 48 hrs by sulforhodamine B assay; type: functional; set-up: concentration or dose not given beside the values
HOP-92 = assay: Growth inhibition of human HOP92 cells assessed as cell growth incubated for 48 hrs by sulforhodamine B assay; type: functional; set-up: concentration or dose not given beside the values
OVCAR-8 = assay: Growth inhibition of human OVCAR8 cells assessed as cell growth incubated for 48 hrs by sulforhodamine B assay; type: functional; set-up: concentration or dose not given beside the values
PC-3 = assay: Growth inhibition of human PC3 cells assessed as cell growth incubated for 48 hrs by sulforhodamine B assay; type: functional; set-up: concentration or dose not given beside the values
A498 = assay: Growth inhibition of human A498 cells assessed as cell growth incubated for 48 hrs by sulforhodamine B assay; type: functional; set-up: concentration or dose not given beside the values
MOLT-4 = assay: Growth inhibition of human MOLT4 cells assessed as cell growth incubated for 48 hrs by sulforhodamine B assay; type: functional; set-up: concentration or dose not given beside the values
SR = assay: Growth inhibition of human SR cells assessed as cell growth incubated for 48 hrs by sulforhodamine B assay; type: functional; set-up: concentration or dose not given beside the values
MCF7 = assay: Growth inhibition of human MCF7 cells assessed as cell growth incubated for 48 hrs by sulforhodamine B assay; type: functional; set-up: concentration or dose not given beside the values
MDA-MB-231 = assay: Growth inhibition of human MDA-MB-231 cells assessed as cell growth incubated for 48 hrs by sulforhodamine B assay; type: functional; set-up: concentration or dose not given beside the values
OVCAR-5 = assay: Growth inhibition of human OVCAR5 cells assessed as cell growth incubated for 48 hrs by sulforhodamine B assay; type: functional; set-up: scale not given: the % may be the effect or the level left
SK-MEL-2 = assay: Growth inhibition of human SK-MEL-2 cells assessed as cell growth incubated for 48 hrs by sulforhodamine B assay; type: functional; set-up: concentration or dose not given beside the values
MDA-MB-468 = assay: Growth inhibition of human MDA-MB-468 cells assessed as cell growth incubated for 48 hrs by sulforhodamine B assay; type: functional; set-up: concentration or dose not given beside the values
SK-MEL-5 = assay: Growth inhibition of human SK-MEL-5 cells assessed as cell growth incubated for 48 hrs by sulforhodamine B assay; type: functional; set-up: concentration or dose not given beside the values
UO-31 = assay: Growth inhibition of human UO31 cells assessed as cell growth incubated for 48 hrs by sulforhodamine B assay; type: functional; set-up: concentration or dose not given beside the values
LOX IMVI = assay: Growth inhibition of human LOXIMVI cells assessed as cell growth incubated for 48 hrs by sulforhodamine B assay; type: functional; set-up: concentration or dose not given beside the values
Malme-3M = assay: Growth inhibition of human MALME-3M cells assessed as cell growth incubated for 48 hrs by sulforhodamine B assay; type: functional; set-up: scale not given: the % may be the effect or the level left
K562 = assay: Growth inhibition of human K562 cells assessed as cell growth incubated for 48 hrs by sulforhodamine B assay; type: functional; set-up: concentration or dose not given beside the values
U-251 = assay: Growth inhibition of human U251 cells assessed as cell growth incubated for 48 hrs by sulforhodamine B assay; type: functional; set-up: concentration or dose not given beside the values
SF-539 = assay: Growth inhibition of human SF539 cells assessed as cell growth incubated for 48 hrs by sulforhodamine B assay; type: functional; set-up: scale not given: the % may be the effect or the level left
MDA-MB-435 = assay: Growth inhibition of human MDA-MB-435 cells assessed as cell growth incubated for 48 hrs by sulforhodamine B assay; type: functional; set-up: concentration or dose not given beside the values
SN12C = assay: Growth inhibition of human SN12C cells assessed as cell growth incubated for 48 hrs by sulforhodamine B assay; type: functional; set-up: concentration or dose not given beside the values
NCI-H460 = assay: Growth inhibition of human NCI-H460 cells assessed as cell growth incubated for 48 hrs by sulforhodamine B assay; type: functional; set-up: concentration or dose not given beside the values
CAKI-1 = assay: Growth inhibition of human Caki1 cells assessed as cell growth incubated for 48 hrs by sulforhodamine B assay; type: functional; set-up: concentration or dose not given beside the values
A549 = assay: Growth inhibition of human A549/ATCC cells assessed as cell growth incubated for 48 hrs by sulforhodamine B assay; type: functional; set-up: concentration or dose not given beside the values
786-0 = assay: Growth inhibition of human 786-0 cells assessed as cell growth incubated for 48 hrs by sulforhodamine B assay; type: functional; set-up: concentration or dose not given beside the values
RXF 393 = assay: Growth inhibition of human RXF393 cells assessed as cell growth incubated for 48 hrs by sulforhodamine B assay; type: functional; set-up: concentration or dose not given beside the values
RPMI-8226 = assay: Growth inhibition of human RPMI8226 cells assessed as cell growth incubated for 48 hrs by sulforhodamine B assay; type: functional; set-up: concentration or dose not given beside the values
SNB-75 = assay: Growth inhibition of human SNB75 cells assessed as cell growth incubated for 48 hrs by sulforhodamine B assay; type: functional; set-up: concentration or dose not given beside the values
HCT-116 = assay: Growth inhibition of human HCT116 cells assessed as cell growth incubated for 48 hrs by sulforhodamine B assay; type: functional; set-up: concentration or dose not given beside the values
HT-29 = assay: Growth inhibition of human HT-29 cells assessed as cell growth incubated for 48 hrs by sulforhodamine B assay; type: functional; set-up: concentration or dose not given beside the values
Hs-578T = assay: Growth inhibition of human Hs 578T cells assessed as cell growth incubated for 48 hrs by sulforhodamine B assay; type: functional; set-up: concentration or dose not given beside the values
NCI-H322M = assay: Growth inhibition of human NCI-H322M cells assessed as cell growth incubated for 48 hrs by sulforhodamine B assay; type: functional; set-up: scale not given: the % may be the effect or the level left
SK-OV-3 = assay: Growth inhibition of human SKOV3 cells assessed as cell growth incubated for 48 hrs by sulforhodamine B assay; type: functional; set-up: concentration or dose not given beside the values
CCRF-CEM = assay: Growth inhibition of human CCRF-CEM cells assessed as cell growth incubated for 48 hrs by sulforhodamine B assay; type: functional; set-up: concentration or dose not given beside the values
M14 = assay: Growth inhibition of human M14 cells assessed as cell growth incubated for 48 hrs by sulforhodamine B assay; type: functional; set-up: concentration or dose not given beside the values
HOP-62 = assay: Growth inhibition of human HOP62 cells assessed as cell growth incubated for 48 hrs by sulforhodamine B assay; type: functional; set-up: concentration or dose not given beside the values
SW-620 = assay: Growth inhibition of human SW620 cells assessed as cell growth incubated for 48 hrs by sulforhodamine B assay; type: functional; set-up: concentration or dose not given beside the values
TK-10 = assay: Growth inhibition of human TK10 cells assessed as cell growth incubated for 48 hrs by sulforhodamine B assay; type: functional; set-up: concentration or dose not given beside the values
SK-MEL-28 = assay: Growth inhibition of human SK-MEL-28 cells assessed as cell growth incubated for 48 hrs by sulforhodamine B assay; type: functional; set-up: concentration or dose not given beside the values
SF-295 = assay: Growth inhibition of human SF295 cells assessed as cell growth incubated for 48 hrs by sulforhodamine B assay; type: functional; set-up: concentration or dose not given beside the values
NCI-H522 = assay: Growth inhibition of human NCI-H522 cells assessed as cell growth incubated for 48 hrs by sulforhodamine B assay; type: functional; set-up: concentration or dose not given beside the values
NCI-H23 = assay: Growth inhibition of human NCI-H23 cells assessed as cell growth incubated for 48 hrs by sulforhodamine B assay; type: functional; set-up: concentration or dose not given beside the values
ACHN = assay: Growth inhibition of human ACHN cells assessed as cell growth incubated for 48 hrs by sulforhodamine B assay; type: functional; set-up: scale not given: the % may be the effect or the level left
BT-549 = assay: Growth inhibition of human BT549 cells assessed as cell growth incubated for 48 hrs by sulforhodamine B assay; type: functional; set-up: concentration or dose not given beside the values
UACC-257 = assay: Growth inhibition of human UACC257 cells assessed as cell growth incubated for 48 hrs by sulforhodamine B assay; type: functional; set-up: concentration or dose not given beside the values
HL-60(TB) = assay: Growth inhibition of human HL-60(TB) cells assessed as cell growth incubated for 48 hrs by sulforhodamine B assay; type: functional; set-up: concentration or dose not given beside the values
NCI-H226 = assay: Growth inhibition of human NCI-H226 cells assessed as cell growth incubated for 48 hrs by sulforhodamine B assay; type: functional; set-up: concentration or dose not given beside the values
DU-145 = assay: Growth inhibition of human DU145 cells assessed as cell growth incubated for 48 hrs by sulforhodamine B assay; type: functional; set-up: concentration or dose not given beside the values
OVCAR-3 = assay: Growth inhibition of human OVCAR3 cells assessed as cell growth incubated for 48 hrs by sulforhodamine B assay; type: functional; set-up: concentration or dose not given beside the values
OVCAR-4 = assay: Growth inhibition of human OVCAR4 cells assessed as cell growth incubated for 48 hrs by sulforhodamine B assay; type: functional; set-up: concentration or dose not given beside the values

Compound: CC(C)=CCCc1ccc2c(=O)c3c(sc4c(=O)c5ccccc5c(=O)c43)c(=O)c2c1
- Activity (Dermcidin (Homo sapiens)): Active

Compound: CC(C)(O)C(O)CCc1ccc2c(=O)c3sc4c(=O)c5ccccc5c(=O)c4c3c(=O)c2c1 (stereo not given)
- Activity (KM12): -76.76%
- Activity (HCT-15): -61.54%
- Activity (UACC-62): -88.01%
- Activity (SNB-19): -98.59%
- Activity (COLO 205): -91.79%
- Activity (NCI/ADR-RES): -15.35%
- Activity (T47D): -51.1%
- Activity (SF-268): -57.54%
- Activity (HCC 2998): -90.76%
- Activity (HOP-92): -32.93%
- Activity (OVCAR-8): -38.88%
- Activity (PC-3): -79.46%
- Activity (A498): -87.3%
- Activity (MOLT-4): -36.2%
- Activity (SR): -25%
- Activity (MCF7): -58.78%
- Activity (MDA-MB-231): -15.99%
- Activity (OVCAR-5): -85.63%
- Activity (SK-MEL-2): -72.32%
- Activity (MDA-MB-468): -83.65%
- Activity (SK-MEL-5): -98.07%
- Activity (UO-31): -96.98%
- Activity (LOX IMVI): -82.6%
- Activity (Malme-3M): -93.22%
- Activity (K562): -59.88%
- Activity (U-251): -92.83%
- Activity (SF-539): -99.46%
- Activity (MDA-MB-435): -93.07%
- Activity (SN12C): -69%
- Activity (NCI-H460): -52.32%
- Activity (CAKI-1): -78.75%
- Activity (A549): -55.33%
- Activity (786-0): -95.07%
- Activity (RXF 393): -77.25%
- Activity (RPMI-8226): -39.84%
- Activity (SNB-75): -95.74%
- Activity (HCT-116): -80.84%
- Activity (HT-29): -46.19%
- Activity (Hs-578T): 1.09%
- Activity (NCI-H322M): -97.48%
- Activity (SK-OV-3): -97.49%
- Activity (CCRF-CEM): -29.57%
- Activity (M14): -93.82%
- Activity (HOP-62): -90.94%
- Activity (SW-620): -60.32%
- Activity (TK-10): -89.49%
- Activity (SK-MEL-28): -96.8%
- Activity (SF-295): -92.59%
- Activity (NCI-H522): -72.26%
- Activity (NCI-H23): -50.82%
- Activity (ACHN): -96.22%
- Activity (BT-549): -96.67%
- Activity (UACC-257): -92.08%
- Activity (HL-60(TB)): -46.78%
- Activity (NCI-H226): -49.62%
- Activity (DU-145): -94.41%
- Activity (OVCAR-3): -68.52%
- Activity (OVCAR-4): -71.07%

Compound: O=C(O)CCc1ccc2c(=O)c3c(sc4c(=O)c5ccccc5c(=O)c43)c(=O)c2c1
- Activity (Dermcidin (Homo sapiens)): Active
